Measured values taken from patent publication US20220168427A1 (Ranok Therapeutics (Hangzhou) Co. Ltd., priority 2019, published 2022).

Legend:
BRD4 (BD1+BD2) = molecular target: T1, BRD4 (BD1+BD2) (Homo sapiens, UniProt O60885); conditions: read-out: BRD4 Binding Potency
T1 construct: 1.8 μg/ml recombinant BRD4 (BD1+BD2 domains) protein

MV4-11 cells = experiment: MV4-11 Cell Cytotoxicity Assay; assay type: cell-based, human; conditions: human, MV4-11 cells, CCK-8
Text: % Inhibition=100−(D−B)/(S−B)*100%.
S: The absorbance of the maximum (cells with DMSO)
B: The absorbance of the minimum (medium with DMSO)

HSP90α = HSP90α (Homo sapiens, UniProt P07900); experiment: HSP90α Binding Fluorescent Polarization (FP) Assay; conditions: competition with FITC-geldanamycin; read-out: HSP90 Binding Potency
Outline: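 Competitive FP assay in which compound displaces FITC-geldanamycin from recombinant HSP90α (28 μg/ml before addition) in BSA-containing buffer. Compounds in 3-fold series from 40 μM to 2.0 nM (dilution-plate concentrations), tested in duplicate. Readings after 30, 60 and 120 min at 25 °C; background-subtracted mP fitted to four-parameter log[inhibitor]-response curve.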

Row | SMILES | IC50 (BRD4 (BD1+BD2)) [nM] | IC50 at 72 h (MV4-11 cells) [nM] | IC50 (HSP90α) [nM]
1 | Cc1nn(-c2ccc(C(N)=O)c(NCCOCCOCCNC(=O)C[C@@H]3N=C(c4ccc(Cl)cc4)c4c(sc(C)c4C)-n4c(C)nnc43)c2)c2c1C(=O)CC(C)(C)C2 [Compound 21, 2-((2-(2-(2-(2-((6S)-4-(4-chlorophenyl)-2,3,9-trimethyl-6H-thieno[3,2-f][1,2,4]triazolo[4,3-a][1,4]diazepin-6-yl)acetamido)ethoxy)ethoxy)ethyl)amino)-4-(3,6,6-trimethyl-4-oxo-4,5,6,7-tetrahydro-1H-indazol-1-yl)benzamide, trifluoroacetic acid] | > 1000 | 100 to 1000 | > 1000
2 | Cc1sc2c(c1C)C(c1ccc(Cl)cc1)=N[C@@H](CC(=O)NCc1ccc(CN3CCC(Cc4ccc(-n5c(C(=O)NCC(F)(F)F)nnc5-c5cc(C(C)C)c(O)cc5O)cc4)CC3)cc1)c1nnc(C)n1-2 [Compound 96, (S)-4-(4-((1-(4-((2-(4-(4-chlorophenyl)-2,3,9-trimethyl-6H-thieno[3,2-f][1,2,4]triazolo[4,3-a][1,4]diazepin-6-yl)acetamido)methyl)benzyl)piperidin-4-yl)methyl)phenyl)-5-(2,4-dihydroxy-5-isopropylphenyl)-N-(2,2,2-trifluoroethyl)-4H-1,2,4-triazole-3-carboxamide, trifluoroacetic acid] | < 100 | < 100 | 100 to 1000
3 | Cc1sc2c(c1C)C(c1ccc(Cl)cc1)=N[C@@H](CC(=O)NCCc1ccc(CN3CCC(Cc4ccc(-n5c(O)nnc5-c5cc(C(C)C)c(O)cc5O)cc4)CC3)cc1)c1nnc(C)n1-2 [Compound 98, (S)-2-(4-(4-chlorophenyl)-2,3,9-trimethyl-6H-thieno[3,2-f][1,2,4]triazolo[4,3-a][1,4]diazepin-6-yl)-N-(4-((4-(4-(3-(2,4-dihydroxy-5-isopropylphenyl)-5-hydroxy-4H-1,2,4-triazol-4-yl)benzyl)piperidin-1-yl)methyl)phenethyl)acetamide, trifluoroacetic acid] | 100 to 1000 | < 100 | 100 to 1000
4 | CCc1cc(-c2nnc(C(=O)NC(C)C)n2-c2ccc(CN3CCN(CC4CCN(C(=O)C[C@@H]5N=C(c6ccc(Cl)cc6)c6c(sc(C)c6C)-n6c(C)nnc65)CC4)CC3)cc2)c(O)cc1O [Compound 105, (S)-4-(4-((4-((1-(2-(4-(4-chlorophenyl)-2,3,9-trimethyl-6H-thieno[3,2-f][1,2,4]triazolo[4,3-a][1,4]diazepin-6-yl)acetyl)piperidin-4-yl)methyl)piperazin-1-yl)methyl)phenyl)-5-(5-ethyl-2,4-dihydroxyphenyl)-N-isopropyl-4H-1,2,4-triazole-3-carboxamide, trifluoroacetic acid] | 100 to 1000 | < 100 | 100 to 1000
5 | CCc1cc(-c2nnc(O)n2-c2ccc(CN3CCN(CC4CCN(C(=O)C[C@H]5N=C(c6ccc(Cl)cc6)c6c(sc(C)c6C)-n6c(C)nnc65)CC4)CC3)cc2)c(O)cc1O [Compound 27, 2-((6R)-4-(4-chlorophenyl)-2,3,9-trimethyl-6H-thieno[3,2-f][1,2,4]triazolo[4,3-a][1,4]diazepin-6-yl)-1-(4-((4-(4-(3-(5-ethyl-2,4-dihydroxyphenyl)-5-hydroxy-4H-1,2,4-triazol-4-yl)benzyl)piperazin-1-yl)methyl)piperidin-1-yl)ethanone, trifluoroacetic acid] | > 1000 | < 100 | 100 to 1000
6 | Cc1sc2c(c1C)C(c1ccc(Cl)cc1)=N[C@@H](CC(=O)N[C@H](C)c1cccc(CN3CCC(Cc4ccc(-n5c(O)nnc5-c5cc(C(C)C)c(O)cc5O)cc4)CC3)c1)c1nnc(C)n1-2 [Compound 81, 2-((S)-4-(4-chlorophenyl)-2,3,9-trimethyl-6H-thieno[3,2-f][1,2,4]triazolo[4,3-a][1,4]diazepin-6-yl)-N—((R)-1-(3-((4-(4-(3-(2,4-dihydroxy-5-isopropylphenyl)-5-hydroxy-4H-1,2,4-triazol-4-yl)benzyl)piperidin-1-yl)methyl)phenyl)ethyl)acetamide, trifluoroacetic acid] | 100 to 1000 | < 100 | 100 to 1000
7 | Cc1sc2c(c1C)C(c1ccc(Cl)cc1)=N[C@@H](CC(=O)NCC(=O)NCCOc1ccc(-n3c(S)nnc3-c3cc(C(C)C)c(O)cc3O)cc1)c1nnc(C)n1-2 [Compound 48, (S)-2-(4-(4-chlorophenyl)-2,3,9-trimethyl-6H-thieno[3,2-f][1,2,4]triazolo[4,3-a][1,4]diazepin-6-yl)-N-(2-((2-(4-(3-(2,4-dihydroxy-5-isopropylphenyl)-5-mercapto-4H-1,2,4-triazol-4-yl)phenoxy)ethyl)amino)-2-oxoethyl)acetamide] | 100 to 1000 | 100 to 1000 | < 100
8 | Cc1sc2c(c1C)C(c1ccc(Cl)cc1)=N[C@@H](CC(=O)N1CCC(Cc3ccc(CN(C)Cc4ccc(-n5c(O)nnc5-c5cc(C(C)C)c(O)cc5O)cc4)cc3)CC1)c1nnc(C)n1-2 [Compound 83, (S)-2-(4-(4-chlorophenyl)-2,3,9-trimethyl-6H-thieno[3,2-f][1,2,4]triazolo[4,3-a][1,4]diazepin-6-yl)-1-(4-(4-(((4-(3-(2,4-dihydroxy-5-isopropylphenyl)-5-hydroxy-4H-1,2,4-triazol-4-yl)benzyl)(methyl)amino)methyl)benzyl)piperidin-1-yl)ethan-1-one, trifluoroacetic acid] | > 1000 | < 100 | 100 to 1000
9 | CCc1cc(-c2nnc(C(=O)NCC(F)(F)F)n2-c2ccc(CC3CCN(CC4CCN(C(=O)C[C@@H]5N=C(c6ccc(Cl)cc6)c6c(sc(C)c6C)-n6c(C)nnc65)CC4)CC3)cc2)c(O)cc1O [Compound 86, (S)-4-(4-((1-((1-(2-(4-(4-chlorophenyl)-2,3,9-trimethyl-6H-thieno[3,2-f][1,2,4]triazolo[4,3-a][1,4]diazepin-6-yl)acetyl)piperidin-4-yl)methyl)piperidin-4-yl)methyl)phenyl)-5-(5-ethyl-2,4-dihydroxyphenyl)-N-(2,2,2-trifluoroethyl)-4H-1,2,4-triazole-3-carboxamide, trifluoroacetic acid] | 100 to 1000 | < 100 | 100 to 1000
10 | Cc1sc2c(c1C)C(c1ccc(Cl)cc1)=N[C@@H](CC(=O)N1CCC(N3CCN(Cc4ccc(-n5c(O)nnc5-c5cc(C(C)C)c(O)cc5O)cc4)CC3)CC1)c1nnc(C)n1-2 [Compound 42, (S)-2-(4-(4-chlorophenyl)-2,3,9-trimethyl-6H-thieno[3,2-f][1,2,4]triazolo[4,3-a][1,4]diazepin-6-yl)-1-(4-(4-(4-(3-(2,4-dihydroxy-5-isopropylphenyl)-5-hydroxy-4H-1,2,4-triazol-4-yl)benzyl)piperazin-1-yl)piperidin-1-yl)ethan-1-one, trifluoroacetic acid] | 100 to 1000 | < 100 | 100 to 1000
11 | Cc1sc2c(c1C)C(c1ccc(Cl)cc1)=N[C@@H](CC(=O)NCCOCCOCCOc1ccc(-n3c(S)nnc3-c3cc(C(C)C)c(O)cc3O)cc1)c1nnc(C)n1-2 [Compound 34, (S)-2-(4-(4-chlorophenyl)-2,3,9-trimethyl-6H-thieno[3,2-f][1,2,4]triazolo[4,3-a][1,4]diazepin-6-yl)-N-(2-(2-(2-(4-(3-(2,4-dihydroxy-5-isopropylphenyl)-5-mercapto-4H-1,2,4-triazol-4-yl)phenoxy)ethoxy)ethoxy)ethyl)acetamide] | > 1000 | 100 to 1000 | > 1000
12 | Cc1sc2c(c1C)C(c1ccc(Cl)cc1)=N[C@@H](CC(=O)NCCOCCN[C@@H](C)C(=O)NC(C(=O)N1CCC[C@H]1C(=O)Nc1snnc1-c1ccccc1)C1CCCCC1)c1nnc(C)n1-2 (stereo in doubt) [Compound 127, (S)-1-((2S,5S)-14-((S)-4-(4-chlorophenyl)-2,3,9-trimethyl-6H-thieno[3,2-f][1,2,4]triazolo[4,3-a][1,4]diazepin-6-yl)-2-cyclohexyl-5-methyl-4,13-dioxo-9-oxa-3,6,12-triazatetradecanoyl)-N-(4-phenyl-1,2,3-thiadiazol-5-yl)pyrrolidine-2-carboxamide] | 100 to 1000 | 100 to 1000 | > 1000
13 | Cc1sc2c(c1C)C(c1ccc(Cl)cc1)=N[C@@H](CC(=O)N1CCC(CCN[C@@H](C)C(=O)N[C@H](C(=O)N3CCC[C@H]3C(=O)Nc3snnc3-c3ccccc3)C3CCCCC3)CC1)c1nnc(C)n1-2 [Compound 130, (S)-1-((S)-2-((S)-2-((2-(1-(2-((S)-4-(4-chlorophenyl)-2,3,9-trimethyl-6H-thieno[3,2-f][1,2,4]triazolo[4,3-a][1,4]diazepin-6-yl)acetyl)piperidin-4-yl)ethyl)amino)propanamido)-2-cyclohexylacetyl)-N-(4-phenyl-1,2,3-thiadiazol-5-yl)pyrrolidine-2-carboxamide] | 100 to 1000 | 100 to 1000 | > 1000
14 | Cc1sc2c(c1C)C(c1ccc(Cl)cc1)=N[C@@H](CC(=O)NCCOCCN1CCC(Cc3ccc(-n4c(O)nnc4-c4cc(C(C)C)c(O)cc4O)cc3)CC1)c1nnc(C)n1-2 [Compound 37, 2-((6S)-4-(4-chlorophenyl)-2,3,9-trimethyl-6H-thieno[3,2-f][1,2,4]triazolo[4,3-a][1,4]diazepin-6-yl)-N-(2-(2-(4-(4-(3-(2,4-dihydroxy-5-isopropylphenyl)-5-hydroxy-4H-1,2,4-triazol-4-yl)benzyl)piperidin-1-yl)ethoxy)ethyl)acetamide, trifluoroacetic acid] | < 100 | 100 to 1000 | < 100
